The target in series [1] is T1, melibiose permease (MelB) (Salmonella typhimurium, UniProt P30878).
T1 construct: made in house; host or cells: E. coli DW2
Put plainly: MelB extraction and thermostability, SDS-PAGE and Western Blotting of the dissolved protein. The conditions noted are these: 90 minutes, detergent 1.5% by weight. The procedure: The MelB protein was extracted from a membrane using BTM-C11s or DDM, and the amount and structure of the extracted protein were analyzed through SDS-PAGE and Western Blotting. A concentration of the amphiphilic compound used was 1.5% by weight, and the protein was extracted at four temperatures (0, 45, 55, and 65° C.), and incubated at the same temperature for 90 minutes. Thereafter, an amount of the protein remaining dissolved in an aqueous solution was measured to evaluate two types of performance: protein extraction efficiency and stabilization ability of the compound. The amount of the protein extracted and stabilized with each of the amphiphilic molecules is expressed as a relative value (%) of the entire amount of proteins contained in a membrane sample which is not treated with the amphiphilic molecules.
Specifically, Salmonella typhimurium melibiose permease (MelBSt) having a 10-His tag at the C-terminus thereof was expressed in E. coli DW2 cells (AmelB and AlacZY) using a plasmid pK95ΔAHB/WT MelBSt/CH10. Cell growth and membrane preparation were performed according to the method disclosed in the article by A. S. Ethayathulla et al. (Nat. Commun. 2014, 5, 3009). A protein assay was performed using a Micro BCA kit (Thermo Scientific, Rockford, Ill.). An effect of the isomers (A-BTM-C11, B-BTM-C11, and M-BTM-C11) of the BTM-C11s or DDM on the MelBSt stability was evaluated using the protocol disclosed in P. S. Chae et al. (Nat. Methods 2010, 7, 1003-1008). A membrane sample (having a final protein concentration of 10 mg/mL) containing MelBSt was incubated at four temperatures (0, 45, 55, and 65° C.) for 90 minutes in a solubilizing buffer (20 mM sodium phosphate, pH 7.5, 200 mM NaCl, 10% glycerol, and 20 mM melibiose) containing 1.5% (w/v) DDM or the BTM-C11 isomers. To remove insoluble matter, the sample was ultracentrifuged at 355,590 g at 4° C. for 45 minutes using a Beckman Optima™ MAX ultracentrifuge equipped with a TLA-100 rotor. The dissolved fraction was separated by 16% SDS-PAGE, and then immunoblotted with a Penta-His-HRP antibody (Qiagen, Germantown, Md.). The membrane fraction containing 20 μg of untreated proteins was used to represent the entire MelB, and the treated samples were loaded in each well at the same volume. MelBSt was measured by an ImageQuant LAS 4000 Biomolecular imager (GE Health Care Life Sciences) using a SuperSignal West Pico chemiluminescent substrate.

Series [2] is described as follows: Hydrodynamic radius and size distribution of micelles by dynamic light scattering (DLS). The class given is physicochemical. The following applies: detergent 1.0% by weight. The procedure:
A method of measuring the radius of the micelles is not particularly limited, but the radius of the micelles may be measured using methods well known in the related art. For example, the radius of the micelles may be measured through a dynamic light scattering (DLS) experiment.
Specifically, the critical micelle concentration (CMC) was measured using diphenylhexatriene (DPH) as a fluorescent stain, and the hydrodynamic radii (Rh) of the micelles formed by each preparation (1.0% by weight) were measured through a dynamic light scattering (DLS) experiment.

The subject of series [3] is uric acid-xanthine/H+ symporter (UapA), UapAG411VΔ1-11 GFP fusion. As to the kind of experiment: Thermal stability of UapA solubilized by detergent, fluorescence size exclusion chromatography (FSEC). The following applies: detergent 1.0% by weight; 40° C. for 10 minutes. Details: species or system Aspergillus nidulans. The procedure: A UapA protein is a uric acid-xanthine/H^+ symporter in Aspergillus nidulans. An experiment for measuring structural stability of a uric acid-xanthine/H^+ symporter (UapA) by BTMs in an aqueous solution was performed. The structural stability of UapA was measured using fluorescence size exclusion chromatography (FSEC).
Specifically, UapAG411VΔ1-11 (hereinafter referred to as ‘UapA’) was expressed as a GFP fusion protein in a Saccharomyces cerevisiae FGY217 strain, and divided into a sample buffer (20 mM Tris (pH 7.5), 150 mM NaCl, 0.03% DDM, and 0.6 mM xanthine). This procedure was performed according to the method disclosed in the article by J. Leung et al. (Mol. Membr. Biol. 2013, 30, 32-42). Membranes containing UapA were re-suspended in PBS (10 mM imidazole pH 8.0, 150 mM NaCl, and 10% glycerol), and a concentration of proteins was measured. […] 100 μL aliquots were removed from the respective tubes, and fluorescence reading on each sample was performed before and after the aliquots were ultracentrifuged at 150,000 g for 10 minutes to remove insoluble matter. Water-soluble fractions remaining under each condition were subjected to fluorescence SEC (FSEC) using a Superose 6 column (GE Healthcare) equilibrated with a buffer containing a proper preparation (DDM or BTM).

T1 sequence (P30878 whole entry): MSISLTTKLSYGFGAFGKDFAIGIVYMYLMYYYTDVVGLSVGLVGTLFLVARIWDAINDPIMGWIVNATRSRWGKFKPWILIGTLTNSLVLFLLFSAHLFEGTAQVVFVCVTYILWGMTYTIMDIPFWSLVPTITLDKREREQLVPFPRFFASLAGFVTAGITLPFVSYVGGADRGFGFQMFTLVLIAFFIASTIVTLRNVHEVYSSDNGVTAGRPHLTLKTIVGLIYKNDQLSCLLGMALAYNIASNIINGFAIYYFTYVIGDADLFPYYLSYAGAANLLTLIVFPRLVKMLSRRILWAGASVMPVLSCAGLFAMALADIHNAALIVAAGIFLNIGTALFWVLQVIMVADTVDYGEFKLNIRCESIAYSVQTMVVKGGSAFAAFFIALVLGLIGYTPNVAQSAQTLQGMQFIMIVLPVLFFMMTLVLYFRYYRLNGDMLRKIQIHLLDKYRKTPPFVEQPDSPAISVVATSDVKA

Regarding `CCCCCCCCCCCCO[C@@H]1O[C@H](CO)[C@@H](O[C@H]2O[C@H](CO)[C@@H](O)[C@H](O)[C@H]2O)[C@H](O)[C@H]1O` [DDM, n-dodecyl-β-D-maltopyranoside, reference compound], the “MelB protein extraction efficiency / dissolved MelB” value in series [1] (0° C.) is “high MelB protein extraction efficiency”. The “amount of MelB protein remaining dissolved in aqueous solution” value in series [1] (55° C.) is “approximately 15%”. Moreover, the “amount of dissolved MelB” value in series [1] (65° C.) is on record as “very small amount of the protein remained”. The “Rh (nm), hydrodynamic radius of micelles” value in series [2] worked out at 3.4 ± 0.03 nm. Further, the “UapA monodisperse peak in FSEC (extraction and structural stability)” value in series [3] is “monodisperse peak with a relatively high strength”.

Source of the values: US11198704B2, “Butane-tetraol-based amphiphiles and uses thereof” (Industry-University Cooperation Foundation Hanyang …, priority 2016, dated 2021).
